Measured values published in patent US9580395B2, “Compositions of dual thyrointegrin antagonists and use in vascular-associated disorders” (Vascular Vision Pharmaceutical Company, priority 2009, dated 2017).

How the values were obtained:
[1] = biological target: cell surface receptor αvβ3 (Homo sapiens, UniProt P05106+P06756); conditions: literature (Rebbaa et al. 2008); cited from earlier work
[2] = tested on: angiogenesis-induced by the growth factor basic fibroblast growth factor (FGF); assay: Inhibition of FGF-induced angiogenesis in the chick chorioallantoic membrane (CAM) model; assay type: in vivo; conditions: Gallus gallus; for inhibition at 0.25 µg/mL: FGF + compound 0.25 μg/ml; for inhibition at 250 µg/mL: 10 μl at 0.25 mg/ml added to FGF impregnated filter
Procedure: To investigate the structure-activity relationships of novel dual Thyrointegrin inhibitors of the present invention, the effect of each compound on angiogenesis-induced by the growth factor basic fibroblast growth factor (FGF) was assessed in the CAM model as depicted in Table 1.
The data in Table 1 represents a mean±standard deviation (SD), n=8 as compared to FGF alone (p<0.001; 10 μl from the different test compounds were added to the FGF impregnated sterile filter).
The CAM system is a widely-used model in which the chick embryonic membrane is exposed to stimulatory and inhibitory compounds. Ten day-old fertilized chicken eggs (Sunrise Farms Inc, Catskill, N.Y.) were incubated at 37° C. and 55% relative humidity. In the dark, with the help of a candling lamp, a small hole was punctured in the area of the shell covering the air sac using a hypodermic needle. A second hole was punctured on the wider side of the egg above an avascular area of the embryonic membrane. An artificial air sac was created below the second hole by gently applying a vacuum to the first hole using a small rubber squeeze bulb. The vacuum caused the separation of the CAM from the shell. A window of approximately 1.0 cm^2 was cut in the shell over the dropped CAM with the use of a mini drill. The underlying CAM was accessed through this small window. Filter disks were punched from filter paper #1 (Whatman International, Ltd, United Kingdom), and then soaked in 3.0 mg/mL cortisone acetate solution (in 95% ethanol) and air-dried under sterile conditions. To induce angiogenesis, sterile filter disks were saturated with FGF and placed on the CAM using sterile forceps. As a control, disks were saturated with PBS without calcium or magnesium. The window was sealed with Highland Brand transparent tape. After 1 hour, 10 μL of inhibitor were applied topically to the FGF-stimulated CAM. After 48 hours, CAM tissue directly beneath the filter disk was harvested and placed in a 35-mm petri dish for evaluation of angiogenesis. Eight eggs were used per treatment.
Digital Imaging and analysis: CAMs in petri dishes were examined using a SV6 stereomicroscope (Carl Zeiss Microlmaging, Inc) at 50× magnification. Digital images were captured using a 3-CCD color video camera system (Toshiba America, Inc, New York, N.Y.). The images were analyzed using Image-Pro Plus (Media Cybernetics, Inc). The number of branch points within a circular region superimposed on the area of the filter disk was counted for each treatment condition.

[3] = biological target: αvβ3 (Homo sapiens, UniProt P05106+P06756); assay: Inhibition of αvβ3-mediated binding in a specific cell adhesion assay; assay type: cell-based; conditions: at 100 nM
[4] = 10 μl on FGF filter, mean ± SD, n=8, vs FGF alone
[5] = post-ester hydrolysis to make the free acid

Sequence of αvβ3 (P06756 31-889 limits assumed): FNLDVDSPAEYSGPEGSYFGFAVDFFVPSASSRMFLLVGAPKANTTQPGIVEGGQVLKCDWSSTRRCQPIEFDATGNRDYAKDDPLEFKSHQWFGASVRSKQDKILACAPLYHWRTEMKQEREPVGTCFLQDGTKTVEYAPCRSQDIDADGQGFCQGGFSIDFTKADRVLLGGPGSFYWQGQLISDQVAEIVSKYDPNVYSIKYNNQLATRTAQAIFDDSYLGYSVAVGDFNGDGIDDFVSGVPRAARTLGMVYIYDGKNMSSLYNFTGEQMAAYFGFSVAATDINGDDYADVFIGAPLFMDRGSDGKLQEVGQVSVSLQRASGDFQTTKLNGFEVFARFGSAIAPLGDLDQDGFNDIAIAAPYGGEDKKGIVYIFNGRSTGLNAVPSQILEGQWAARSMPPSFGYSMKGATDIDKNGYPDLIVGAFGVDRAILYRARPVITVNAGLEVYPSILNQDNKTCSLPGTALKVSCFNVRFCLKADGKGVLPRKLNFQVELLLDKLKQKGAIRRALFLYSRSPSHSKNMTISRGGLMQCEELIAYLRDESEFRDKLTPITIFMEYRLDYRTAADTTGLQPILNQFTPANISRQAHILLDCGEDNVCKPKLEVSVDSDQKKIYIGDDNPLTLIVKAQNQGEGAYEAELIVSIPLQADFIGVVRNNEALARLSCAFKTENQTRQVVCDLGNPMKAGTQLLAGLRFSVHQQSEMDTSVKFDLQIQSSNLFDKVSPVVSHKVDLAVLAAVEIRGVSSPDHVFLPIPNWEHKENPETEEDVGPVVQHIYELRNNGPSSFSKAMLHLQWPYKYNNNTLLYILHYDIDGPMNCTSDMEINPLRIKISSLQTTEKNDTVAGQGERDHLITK
Sequence of αvβ3 (P06756 891-1048 partner limits assumed): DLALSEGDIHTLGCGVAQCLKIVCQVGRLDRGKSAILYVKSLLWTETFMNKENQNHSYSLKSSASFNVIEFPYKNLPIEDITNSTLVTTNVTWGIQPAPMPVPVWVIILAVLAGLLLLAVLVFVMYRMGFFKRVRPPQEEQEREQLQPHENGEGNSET
Sequence of αvβ3 (P05106 27-788): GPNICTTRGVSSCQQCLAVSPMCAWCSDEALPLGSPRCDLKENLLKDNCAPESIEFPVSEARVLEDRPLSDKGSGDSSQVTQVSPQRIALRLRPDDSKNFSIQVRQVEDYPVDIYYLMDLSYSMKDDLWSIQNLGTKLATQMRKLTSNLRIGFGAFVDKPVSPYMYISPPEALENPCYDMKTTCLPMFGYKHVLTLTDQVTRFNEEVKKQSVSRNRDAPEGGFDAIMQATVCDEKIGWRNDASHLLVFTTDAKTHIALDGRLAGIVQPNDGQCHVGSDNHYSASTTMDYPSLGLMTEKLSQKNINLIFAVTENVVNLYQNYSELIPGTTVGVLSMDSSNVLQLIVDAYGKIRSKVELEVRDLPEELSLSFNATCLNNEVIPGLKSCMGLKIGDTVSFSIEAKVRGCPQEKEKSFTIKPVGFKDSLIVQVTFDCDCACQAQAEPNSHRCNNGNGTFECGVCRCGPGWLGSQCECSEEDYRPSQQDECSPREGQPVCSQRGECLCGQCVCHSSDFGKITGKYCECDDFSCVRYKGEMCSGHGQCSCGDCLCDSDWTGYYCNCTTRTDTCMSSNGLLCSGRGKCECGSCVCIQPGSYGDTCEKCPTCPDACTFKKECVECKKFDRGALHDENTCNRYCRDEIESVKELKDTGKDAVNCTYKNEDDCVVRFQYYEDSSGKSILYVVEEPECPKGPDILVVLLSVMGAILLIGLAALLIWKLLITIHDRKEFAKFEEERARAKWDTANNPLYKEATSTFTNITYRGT
Sequence of cell surface receptor αvβ3 (P06756 31-889 limits assumed): as the sequence (P06756 31-889 limits assumed) above
Sequence of cell surface receptor αvβ3 (P06756 891-1048 partner limits assumed): as the sequence (P06756 891-1048 partner limits assumed) above
Sequence of cell surface receptor αvβ3 (P05106 27-788): as the sequence (P05106 27-788) above

For `O=C(O)Cc1cc(I)c(Oc2cc(I)c(O)c(I)c2)c(I)c1` [Tetrac, [4-(4-Hydroxy-3,5-diiodophenoxy)-3,5-diiodophenyl]acetic acid, reference compound], the “affinity of binding to αvβ3” value [1] is given as “weak affinity” and the inhibition at 10 µg/mL ([2]; FGF + compound 10 μg/ml, 10 μl on FGF filter, mean ± SD, n=8, vs FGF alone) is given as 85 ± 11%.

Work on `NC(N)=NCCOc1c(I)cc(Oc2c(I)cc(CC(=O)[O-])cc2I)cc1I.[Li+]` [compound 21, Lithium [4-(4-{2-[(diaminomethylene)amino]ethoxy}-3,5-diiodophenoxy)-3,5-diiodophenyl]acetate] yielded an inhibition at 0.25 µg/mL [2, 4] of 75 ± 10% and a melting point of 133 °C.

With `NC(=O)NCCOc1c(I)cc(Oc2c(I)cc(CC(=O)O)cc2I)cc1I` [compound 22, (4-{4-[2-(Carbamoylamino)ethoxy]-3,5-diiodophenoxy}-3,5-diiodophenyl)acetic acid] the inhibition at 0.25 µg/mL [2, 4] was 74 ± 13% and the melting point was 267 °C.

With `NCCCOc1c(I)cc(Oc2c(I)cc(CC(=O)O)cc2I)cc1I` [compound 23, {4-[4-(3-aminopropoxy)-3,5-diiodophenoxy]-3,5-diiodophenyl}acetic acid] the inhibition at 0.25 µg/mL [2, 4] was 88 ± 11%.

With `CC(C)(C)OC(=O)NCCCOc1c(I)cc(Oc2c(I)cc(CC(=O)O)cc2I)cc1I` [compound 30] the inhibition at 250 µg/mL [2] was 75 ± 7% and the inhibition at 0.1 µM [3] was 66 ± 8%.

`COC(=O)Cc1cc(I)c(Oc2cc(I)c(OCCCN)c(I)c2)c(I)c1` [compound 31] showed an inhibition at 250 µg/mL [2] of 0% and an inhibition at 0.1 µM [3] of 0%.

`NCCCOc1c(I)cc(Oc2c(I)cc(CC(=O)O)cc2I)cc1I` [compound 32] gave an inhibition at 250 µg/mL [2, 5] of 88 ± 8% and an inhibition at 0.1 µM [3, 5] of 100%.

`COC(=O)Cc1cc(I)c(Oc2cc(I)c(OCCCNCc3cccnc3)c(I)c2)c(I)c1` [compound 33] showed an inhibition at 250 µg/mL [2] of 0% and an inhibition at 0.1 µM [3] of 0%.

Compound `O=C(O)Cc1cc(I)c(Oc2cc(I)c(OCCCNCc3cccnc3)c(I)c2)c(I)c1` [compound 34] has an inhibition at 250 µg/mL [2, 5] of 95 ± 11% and an inhibition at 0.1 µM [3, 5] of 68 ± 7%.

With `COC(=O)Cc1cc(I)c(Oc2cc(I)c(OCCCN3CCSCC3)c(I)c2)c(I)c1` [compound 35] the inhibition at 250 µg/mL [2] was 0% and the inhibition at 0.1 µM [3] was 0%.

Work on `O=C(O)Cc1cc(I)c(Oc2cc(I)c(OCCCN3CCSCC3)c(I)c2)c(I)c1` [compound 36] yielded an inhibition at 250 µg/mL [2, 5] of 89 ± 10% and an inhibition at 0.1 µM [3, 5] of 93 ± 8%.

`CCN(CC)CCCOc1c(I)cc(Oc2c(I)cc(CC(=O)OC)cc2I)cc1I` [compound 37] showed an inhibition at 250 µg/mL [2] of 0%, an inhibition at 250 µg/mL [2, 5] of 83% and an inhibition at 0.1 µM [3] of 1%. For the same compound, the inhibition at 0.1 µM [3, 5] was 100%.
